Earlier results on 1 compound are cited in patent US20100221356A1, “PHARMACEUTICAL COMPOSITION FOR ONCE A DAY ADMINISTRATION OF TROSPIUM CHLORIDE” (SUPERNUS PHARMACEUTICALS, INC., priority 2003, published 2010).

For data set [1] the following is noted: water.
The conditions of data set [2]: 40 mg immediate release dose once daily compared to 20 mg given twice daily.

Take `O=C(O[C@H]1C[C@H]2CC[C@@H](C1)[N+]21CCCC1)C(O)(c1ccccc1)c1ccccc1` [Trospium chloride]: the saturation solubility in data set [1] is 500 mg/mL. In addition, the oral bioavailability result (oral) was “approximately 10%”. The “oral bioavailability with the intake of high-fat food” value (oral, high-fat food) was “significantly reduced”. For the same compound, the “time to maximum blood level” value (orally administered) was 5 to 6 h. Further, the “overall incidence of adverse events” value in data set [2] is reported as “higher overall incidence of adverse events”.
